Data from ChEMBL document CHEMBL1140014, “Synthesis and evaluation of pyrazolo[3,4-b]pyridine CDK1 inhibitors as anti-tumor agents” (Bioorg Med Chem Lett, 2007).
In brackets after ≈: the same amount, converted by molar mass.

What was measured:
HeLa = test: cells; details: Homo sapiens
[1] = Solubility in 20% hydroxyl propyl beta-cyclodextrin; type: physicochemical; details: 20% hydroxypropyl beta-cyclodextrin solution
A-375 = test: cells; details: Homo sapiens
[2] = Inhibition of Aurora2; design: species or system Homo sapiens
HCT-116 = test: cells; details: Homo sapiens
[3] = target: Vascular endothelial growth factor receptor 2 (Homo sapiens, UniProt P35968); test: Inhibition of VEGFR2
[4] = Half life in rat at 2 mg/kg, iv; type: ADME, organism-based; design: dose 2 mg/kg, route intravenous; details: in vivo
[5] = AUC in rat at 10 mg/kg, po; type: ADME, organism-based; design: dose 10 mg/kg, route oral; details: plasma
[6] = Cmax in rat at 10 mg/kg, po; type: ADME, organism-based; design: dose 10 mg/kg, route oral; details: in vivo
[7] = Cmax in rat at 2 mg/kg, iv; type: ADME, organism-based; design: dose 2 mg/kg, route intravenous; details: in vivo
Rattus norvegicus = test: (§1) AUC in rat at 2 mg/kg, iv; type: ADME, organism-based, Plasma; design: dose 2 mg/kg, route intravenous; details: in vivo
[8] = Oral bioavailability in rat at 10 mg/kg; type: ADME, organism-based; details: in vivo
[9] = Half life in rat at 10 mg/kg, po; type: ADME, organism-based; design: dose 10 mg/kg, route oral; details: in vivo
[10] = target: Receptor tyrosine-protein kinase erbB-2 (Homo sapiens, UniProt P04626); test: Inhibition of HER2
[11] = target: Proto-oncogene tyrosine-protein kinase receptor Ret (Homo sapiens, UniProt P07949); test: Inhibition of RET
[12] = target: Cyclin-dependent kinase 1 (Homo sapiens, UniProt P06493); test: Inhibition of CDK1
[13] = as §1; type: ADME, organism-based, Plasma; design: dose 2 mg/kg, route intravenous; details: plasma
[14] = Clearance in rat at 2 mg/kg, iv; type: ADME, organism-based; design: dose 2 mg/kg, route intravenous; details: in vivo

Receptor tyrosine-protein kinase erbB-2, sequence (P04626 whole entry): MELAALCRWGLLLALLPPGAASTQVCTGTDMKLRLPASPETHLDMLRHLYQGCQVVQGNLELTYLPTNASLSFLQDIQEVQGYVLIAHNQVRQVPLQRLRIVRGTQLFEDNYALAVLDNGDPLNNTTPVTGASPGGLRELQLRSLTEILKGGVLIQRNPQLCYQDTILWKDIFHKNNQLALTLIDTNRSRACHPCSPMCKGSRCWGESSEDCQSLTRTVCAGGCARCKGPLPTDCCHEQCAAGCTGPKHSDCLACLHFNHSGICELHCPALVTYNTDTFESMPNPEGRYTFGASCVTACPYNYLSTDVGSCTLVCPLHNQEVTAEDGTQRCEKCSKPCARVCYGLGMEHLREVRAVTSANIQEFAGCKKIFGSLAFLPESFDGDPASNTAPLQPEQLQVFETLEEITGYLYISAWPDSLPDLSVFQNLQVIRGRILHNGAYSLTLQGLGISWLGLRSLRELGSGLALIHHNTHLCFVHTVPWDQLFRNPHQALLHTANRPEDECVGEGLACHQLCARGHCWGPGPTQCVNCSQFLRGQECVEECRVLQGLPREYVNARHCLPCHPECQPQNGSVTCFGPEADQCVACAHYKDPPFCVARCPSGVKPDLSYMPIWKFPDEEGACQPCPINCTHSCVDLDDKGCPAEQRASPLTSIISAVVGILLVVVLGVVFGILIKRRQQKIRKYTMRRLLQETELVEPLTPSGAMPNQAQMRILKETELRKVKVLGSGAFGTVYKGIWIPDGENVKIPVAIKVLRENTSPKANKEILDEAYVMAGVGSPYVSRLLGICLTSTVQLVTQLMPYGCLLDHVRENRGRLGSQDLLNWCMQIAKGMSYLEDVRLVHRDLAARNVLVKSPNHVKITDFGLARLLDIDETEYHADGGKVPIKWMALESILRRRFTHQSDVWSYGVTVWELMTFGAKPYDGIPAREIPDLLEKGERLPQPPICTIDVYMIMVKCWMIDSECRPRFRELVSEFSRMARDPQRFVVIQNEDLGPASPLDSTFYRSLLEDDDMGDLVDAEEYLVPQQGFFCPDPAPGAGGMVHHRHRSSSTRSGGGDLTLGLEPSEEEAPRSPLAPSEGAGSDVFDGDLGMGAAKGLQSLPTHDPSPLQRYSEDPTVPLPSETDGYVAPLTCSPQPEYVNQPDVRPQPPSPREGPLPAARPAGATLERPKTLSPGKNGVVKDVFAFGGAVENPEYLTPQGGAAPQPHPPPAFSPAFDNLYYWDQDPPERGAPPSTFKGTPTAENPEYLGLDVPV
Vascular endothelial growth factor receptor 2, sequence (P35968 whole entry): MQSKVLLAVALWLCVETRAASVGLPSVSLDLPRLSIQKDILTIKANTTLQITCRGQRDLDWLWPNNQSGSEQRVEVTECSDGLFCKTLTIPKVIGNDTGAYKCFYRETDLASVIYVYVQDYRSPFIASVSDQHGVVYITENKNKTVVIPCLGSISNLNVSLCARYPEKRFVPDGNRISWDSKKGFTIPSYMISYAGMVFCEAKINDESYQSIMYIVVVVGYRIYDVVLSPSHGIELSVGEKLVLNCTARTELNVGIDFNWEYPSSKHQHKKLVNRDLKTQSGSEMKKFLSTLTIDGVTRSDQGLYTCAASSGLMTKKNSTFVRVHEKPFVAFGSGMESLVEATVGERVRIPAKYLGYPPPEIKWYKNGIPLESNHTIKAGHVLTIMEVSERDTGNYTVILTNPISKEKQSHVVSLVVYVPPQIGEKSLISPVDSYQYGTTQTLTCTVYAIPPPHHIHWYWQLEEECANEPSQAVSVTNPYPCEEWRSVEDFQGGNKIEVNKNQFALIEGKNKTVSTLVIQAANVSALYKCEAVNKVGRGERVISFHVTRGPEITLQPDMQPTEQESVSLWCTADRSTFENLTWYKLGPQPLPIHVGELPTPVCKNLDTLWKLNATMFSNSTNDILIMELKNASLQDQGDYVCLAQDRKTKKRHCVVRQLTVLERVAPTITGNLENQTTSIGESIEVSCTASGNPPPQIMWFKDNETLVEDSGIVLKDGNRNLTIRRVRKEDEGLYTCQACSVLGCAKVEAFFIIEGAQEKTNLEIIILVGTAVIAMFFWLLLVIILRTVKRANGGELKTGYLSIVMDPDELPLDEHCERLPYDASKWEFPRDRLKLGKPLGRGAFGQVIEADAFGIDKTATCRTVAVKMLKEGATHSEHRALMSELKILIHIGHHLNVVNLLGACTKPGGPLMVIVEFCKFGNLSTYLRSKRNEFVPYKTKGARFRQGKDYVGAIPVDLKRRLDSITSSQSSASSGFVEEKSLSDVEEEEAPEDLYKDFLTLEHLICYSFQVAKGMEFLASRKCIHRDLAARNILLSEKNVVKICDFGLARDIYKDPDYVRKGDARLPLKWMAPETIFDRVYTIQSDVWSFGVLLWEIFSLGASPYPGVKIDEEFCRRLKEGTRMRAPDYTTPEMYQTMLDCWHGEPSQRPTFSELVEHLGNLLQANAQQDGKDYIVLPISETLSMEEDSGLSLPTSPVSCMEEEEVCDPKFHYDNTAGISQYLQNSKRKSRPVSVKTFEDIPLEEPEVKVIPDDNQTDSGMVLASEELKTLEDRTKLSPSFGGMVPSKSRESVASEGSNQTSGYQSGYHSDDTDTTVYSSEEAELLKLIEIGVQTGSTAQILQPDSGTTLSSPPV
Cyclin-dependent kinase 1, sequence (P06493 whole entry): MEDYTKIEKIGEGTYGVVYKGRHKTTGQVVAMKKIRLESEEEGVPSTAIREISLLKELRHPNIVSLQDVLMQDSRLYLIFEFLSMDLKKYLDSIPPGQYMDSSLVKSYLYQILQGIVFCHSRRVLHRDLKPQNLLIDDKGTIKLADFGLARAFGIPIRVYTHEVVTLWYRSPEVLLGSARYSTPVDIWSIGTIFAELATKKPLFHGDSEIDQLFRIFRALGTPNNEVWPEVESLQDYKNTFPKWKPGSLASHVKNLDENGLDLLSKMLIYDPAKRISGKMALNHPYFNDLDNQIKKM
Proto-oncogene tyrosine-protein kinase receptor Ret, sequence (P07949 whole entry): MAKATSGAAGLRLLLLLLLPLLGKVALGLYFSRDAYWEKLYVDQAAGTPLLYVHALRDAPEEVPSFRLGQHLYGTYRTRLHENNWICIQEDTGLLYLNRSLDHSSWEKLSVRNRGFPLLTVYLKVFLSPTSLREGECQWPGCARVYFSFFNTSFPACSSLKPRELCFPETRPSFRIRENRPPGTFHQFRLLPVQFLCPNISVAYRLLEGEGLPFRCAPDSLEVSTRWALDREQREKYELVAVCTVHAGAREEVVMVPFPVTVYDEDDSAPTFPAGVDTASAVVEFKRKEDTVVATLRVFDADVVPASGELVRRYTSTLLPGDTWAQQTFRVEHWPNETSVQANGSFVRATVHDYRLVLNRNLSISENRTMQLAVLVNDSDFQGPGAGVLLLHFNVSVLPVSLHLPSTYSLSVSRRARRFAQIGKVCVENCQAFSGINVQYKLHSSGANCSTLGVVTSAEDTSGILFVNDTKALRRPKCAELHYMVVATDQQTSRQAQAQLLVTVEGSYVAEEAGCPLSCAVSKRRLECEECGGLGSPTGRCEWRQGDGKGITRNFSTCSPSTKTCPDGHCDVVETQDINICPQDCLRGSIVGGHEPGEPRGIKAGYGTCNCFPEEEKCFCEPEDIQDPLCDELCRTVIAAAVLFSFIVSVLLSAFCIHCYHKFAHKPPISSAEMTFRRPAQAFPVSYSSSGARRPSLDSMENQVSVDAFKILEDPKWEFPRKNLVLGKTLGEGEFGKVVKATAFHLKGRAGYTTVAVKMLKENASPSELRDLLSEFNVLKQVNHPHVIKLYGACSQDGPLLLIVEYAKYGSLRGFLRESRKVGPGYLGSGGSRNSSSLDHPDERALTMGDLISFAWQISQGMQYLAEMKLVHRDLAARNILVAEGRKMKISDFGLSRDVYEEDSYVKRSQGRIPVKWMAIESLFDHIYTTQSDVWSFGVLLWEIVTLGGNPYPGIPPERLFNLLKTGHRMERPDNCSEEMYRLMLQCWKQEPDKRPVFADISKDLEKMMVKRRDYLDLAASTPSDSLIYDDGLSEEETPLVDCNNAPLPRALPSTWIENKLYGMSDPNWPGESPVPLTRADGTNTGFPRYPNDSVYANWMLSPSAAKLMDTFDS

## CCNCc1cncc(-c2cnc3[nH]nc(-c4nc5cc(F)c(F)cc5[nH]4)c3c2)c1
HeLa
  IC50: 140 nM
[1]
  solubility: 12.5 mg/mL (≈ 30.8 mM)
A-375
  IC50: 46 nM
[2]
  IC50: > 1000 nM
HCT-116
  IC50: 95 nM
[3]
  IC50: 100 nM

## CCNCc1cncc(-c2cnc3n[nH]c(-c4nc5ccc(F)cc5[nH]4)c3c2)c1
[4]
  half-life: 16.1 h
[5]
  AUC: 150 ng·h/mL
HeLa
  IC50: 59 nM
[6]
  Cmax: 3.8 ng/mL
[1]
  solubility: 12.5 mg/mL (≈ 32.3 mM)
A-375
  IC50: 51 nM
[7]
  Cmax: 217 ng/mL
Rattus norvegicus
  AUC: 372 ng·h/mL
[2]
  IC50: 800 nM
[8]
  bioavailability: 8%
HCT-116
  IC50: 94 nM
[9]
  half-life: 31.3 h
[3]
  IC50: 150 nM

## OCc1cccc2[nH]c(-c3n[nH]c4ncc(-c5cncc6ccccc56)cc34)nc12
[10]
  IC50: 240 nM
HeLa
  IC50: 1760 nM
[2]
  IC50: > 10000 nM
HCT-116
  IC50: 890 nM
[3]
  IC50: > 100000 nM

## COCc1cccc2[nH]c(-c3n[nH]c4ncc(-c5cncc6ccccc56)cc34)nc12
HeLa
  IC50: 15 nM
A-375
  IC50: 10 nM
[2]
  IC50: 320 nM
HCT-116
  IC50: 10 nM
[3]
  IC50: 460 nM

## CC(C)OCc1cccc2[nH]c(-c3n[nH]c4ncc(-c5cncc6ccccc56)cc34)nc12
HeLa
  IC50: 2140 nM
A-375
  IC50: 910 nM
[2]
  IC50: > 1000 nM
HCT-116
  IC50: 2880 nM
[3]
  IC50: 100 nM

## COCc1cccc2[nH]c(-c3n[nH]c4ncc(-c5cnc6ccccc6c5)cc34)nc12
[10]
  IC50: > 100000 nM
HeLa
  IC50: 1460 nM
A-375
  IC50: 11 nM
[11]
  IC50: > 100000 nM
[2]
  IC50: > 100000 nM
[3]
  IC50: > 100000 nM

## COCc1cccc2[nH]c(-c3n[nH]c4ncc(-c5ccncc5)cc34)nc12
HeLa
  IC50: 3090 nM
A-375
  IC50: 23 nM
[2]
  IC50: > 1000 nM
HCT-116
  IC50: 62 nM
[3]
  IC50: 110 nM

## COCc1cccc2[nH]c(-c3n[nH]c4ncc(-c5cncnc5)cc34)nc12
HeLa
  IC50: 9910 nM
A-375
  IC50: 160 nM
[2]
  IC50: 10000 nM
HCT-116
  IC50: 330 nM
[3]
  IC50: 110 nM

## CCN(CC)Cc1cccc2[nH]c(-c3n[nH]c4ncc(-c5cncc6ccccc56)cc34)nc12
[10]
  IC50: 89 nM
HeLa
  IC50: 29 nM
A-375
  IC50: 47 nM
[12]
  IC50: 1.8 nM
HCT-116
  IC50: 31 nM
[3]
  IC50: 1550 nM

## CN1CCN(c2ccc3[nH]c(-c4n[nH]c5ncc(-c6cncc7ccccc67)cc45)nc3c2)CC1
[4]
  half-life: 0.73 h
[5]
  AUC: 173 ng·h/mL
HeLa
  IC50: 450 nM
[6]
  Cmax: 65 ng/mL
A-375
  IC50: 160 nM
[7]
  Cmax: 1000 ng/mL
[13]
  AUC: 959 ng·h/mL
[12]
  IC50: 14 nM
[8]
  bioavailability: 4%
[14]
  clearance: 34.9 mL/min/kg
HCT-116
  IC50: 360 nM
[9]
  half-life: 3.3 h

## c1ccc2c(-c3cnc4[nH]nc(-c5nc6cc(N7CCOCC7)ccc6[nH]5)c4c3)cncc2c1
HeLa
  IC50: 400 nM
A-375
  IC50: 300 nM
[2]
  IC50: 41 nM
HCT-116
  IC50: 370 nM
[3]
  IC50: 1070 nM

## O=C(O)c1cccc2[nH]c(-c3n[nH]c4ncc(-c5cncc6ccccc56)cc34)nc12
HeLa
  IC50: > 10000 nM
A-375
  IC50: > 10000 nM
[2]
  IC50: > 10000 nM
HCT-116
  IC50: > 10000 nM
[3]
  IC50: > 10000 nM

## CC(C)NC(=O)c1cccc2[nH]c(-c3n[nH]c4ncc(-c5cncc6ccccc56)cc34)nc12
HeLa
  IC50: 35 nM
A-375
  IC50: 65 nM
[12]
  IC50: 39 nM
[2]
  IC50: > 100 nM
HCT-116
  IC50: 42 nM
[3]
  IC50: 380 nM

## COCc1cccc2[nH]c(-c3n[nH]c4ncc(-c5cncc(CN(C)C)c5)cc34)nc12
HeLa
  IC50: 1230 nM
A-375
  IC50: 330 nM
[12]
  IC50: 120 nM
[2]
  IC50: 3750 nM
HCT-116
  IC50: 190 nM
[3]
  IC50: 1600 nM

## CCNCc1cncc(-c2cnc3[nH]nc(-c4nc5c(COC)cccc5[nH]4)c3c2)c1C
[12]
  IC50: 110 nM
[2]
  IC50: 8020 nM
[3]
  IC50: 4670 nM

## CCN(CC)C(=O)c1cccc2[nH]c(-c3n[nH]c4ncc(-c5cncc6ccccc56)cc34)nc12
[10]
  IC50: > 10000 nM
HeLa
  IC50: 170 nM
A-375
  IC50: 71 nM
[2]
  IC50: 1000 nM
HCT-116
  IC50: 55 nM
[3]
  IC50: 10000 nM

## COCc1cccc2[nH]c(-c3nn(C)c4ncc(-c5cncc6ccccc56)cc34)nc12
HeLa
  IC50: 1170 nM
A-375
  IC50: 260 nM
[12]
  IC50: 120 nM
[2]
  IC50: 100000 nM
HCT-116
  IC50: 200 nM
[3]
  IC50: > 100000 nM

## c1ccc2c(-c3cnc4[nH]nc(-c5nc6ccccc6[nH]5)c4c3)cncc2c1
HeLa
  IC50: 1700 nM
A-375
  IC50: 870 nM
[12]
  IC50: 23 nM
HCT-116
  IC50: 550 nM

## COC(=O)c1cccc2[nH]c(-c3n[nH]c4ncc(-c5cncc6ccccc56)cc34)nc12
HeLa
  IC50: 10500 nM
A-375
  IC50: 7380 nM
[12]
  IC50: 10000 nM
[3]
  IC50: 100000 nM

## CCCNCc1cncc(-c2cnc3[nH]nc(-c4nc5c(COC)cccc5[nH]4)c3c2)c1
[1]
  solubility: 12.5 mg/mL (≈ 29.2 mM)
[2]
  IC50: 3990 nM

## CCNCc1cncc(-c2cnc3[nH]nc(-c4nc5cc(N6CCN(C)CC6)ccc5[nH]4)c3c2)c1
HeLa
  IC50: 470 nM
[1]
  solubility: 12.5 mg/mL (≈ 26.7 mM)
A-375
  IC50: 630 nM
[12]
  IC50: 3 nM
[2]
  IC50: 280 nM
HCT-116
  IC50: 540 nM
[3]
  IC50: 25 nM

## CNCc1cncc(-c2cnc3[nH]nc(-c4nc5c(COC)cccc5[nH]4)c3c2)c1
HeLa
  IC50: 460 nM
A-375
  IC50: 270 nM
[11]
  IC50: 1000 nM
[12]
  IC50: 2.5 nM
[2]
  IC50: > 1000 nM
HCT-116
  IC50: 310 nM
[3]
  IC50: 640 nM

## Cc1cccc2[nH]c(-c3n[nH]c4ncc(-c5cncc6ccccc56)cc34)nc12
[10]
  IC50: 1000 nM
HeLa
  IC50: 3090 nM
A-375
  IC50: 1720 nM
HCT-116
  IC50: 1640 nM
[3]
  IC50: 10000 nM

## COCc1cccc2[nH]c(-c3n[nH]c4ncc(-c5cccnc5)cc34)nc12
HeLa
  IC50: 650 nM
A-375
  IC50: 33 nM
[12]
  IC50: 29 nM
[2]
  IC50: > 1000 nM
HCT-116
  IC50: 19 nM
[3]
  IC50: 160 nM

## CNCc1cncc(-c2cnc3[nH]nc(-c4nc5cc(OC(F)(F)F)ccc5[nH]4)c3c2)c1
[1]
  solubility: 12.5 mg/mL (≈ 28.4 mM)
A-375
  IC50: 47 nM
[12]
  IC50: 9 nM
[2]
  IC50: 1000 nM
HCT-116
  IC50: 55 nM
[3]
  IC50: > 100 nM

## CC(C)NCc1cccc2[nH]c(-c3n[nH]c4ncc(-c5cncc6ccccc56)cc34)nc12
HeLa
  IC50: 130 nM
A-375
  IC50: 140 nM
[12]
  IC50: 13 nM
[2]
  IC50: 3620 nM
HCT-116
  IC50: 110 nM
[3]
  IC50: 1000 nM

## CCNCc1cncc(-c2cnc3[nH]nc(-c4nc5cc(OC)ccc5[nH]4)c3c2)c1
HeLa
  IC50: 32 nM
[1]
  solubility: 12.5 mg/mL (≈ 31.3 mM)
A-375
  IC50: 100 nM
[11]
  IC50: 1000 nM
[2]
  IC50: 360 nM
HCT-116
  IC50: 49 nM
[3]
  IC50: > 100 nM
